Experimental findings from patent US8309735B2, “Heterocyclic compounds for the inhibition of integrins and use thereof” (Shire Orphan Therapies GmbH, priority 2006, dated 2012) are described below.

What is called pIC50 is the negative decadic logarithm of the IC50, by convention in mol/L.

Experiment [1] has as its target T1, integrin alpha5beta1 extracellular domain Fc-fusion (Homo sapiens, UniProt P05556+P08648).
T1 construct: The integrin alpha5beta1 extracellular domain Fc-fusion was expressed and purified as described; made in house
Nature of the experiment: alpha5beta1 - Fibronectin Binding Assay (competitive ELISA). Conditions: inhibition of integrin binding to fibronectin. The protocol: (§1) The optimal concentrations of integrin and ligand were selected from ELISA binding studies with variable concentrations of both to obtain optimal signal noise ratio for further studies. IC50 studies were performed with fixed concentration of ligand and integrin and a serial dilution of inhibitor. The plates were measured with SpectraMax Plus reader (Molecular Devices). The resulting inhibition curves were analyzed using SoftMaxPro 4.0 software, the turning point describes the IC50 value.
(§2) Fibronectin was purchased from Sigma and fibrinogen from Calbiochem. (EMD Biosciences, Darmstadt, Germany). The integrin alpha5beta1 extracellular domain Fc-fusion was expressed and purified as described (Coe, 2001, J. Biol. Chem., 276, 35854). Integrin alphaIIbbeta3 was purchased form Kordia (Kordia Life Science, Leiden, Netherlands)
1.1. alpha5beta1—Fibronectin Binding Assay
Fibronectin was diluted with coating buffer (15 mM Na2CO3, 35 mM NaHCO3, pH 9.6) and coated with 100 μL/well to Nunc-Immuno maxisorp plates (Nalge Nunc Europe Ltd) over night at 4° C. After discarding the coating solution plates were washed 3 times with buffer 1 (25 mM Tris, pH 7.6, 150 mM NaCl, 1 mM MnCl2, 1 mg/ml BSA) and blocked with 100 μL blocking buffer (3% BSA in PBS 0.1% Tween20) for 1 hour at room temperature. After washing the blocked plates (3 times) with buffer 1, integrin (50 μL) and either inhibitor (serial dilution in buffer 1) or buffer 1 (50 μL) were added to the wells and incubated for one hour at RT. Plates were then washed (3 times) with buffer 1 and incubated with 100 μL of anti-human-Fc-HRP antibody conjugate (Sigma-Aldrich, Taufkirchen, Germany) in buffer 1 for 1 hour at RT. After additional washing steps (3 times) with buffer 150 μL of HRP substrate solution TMB (Seramun, Germany) were added to the wells. Color development was stopped after 3-5 minutes with 50 μL 1 M H2SO4. The developed color was measured at 450 nm and analyzed as described above.
Background: In an ELISA, binding on a coated surface is turned into a signal by an enzyme label.

Experiment [2] addresses T2, Integrin alphaIIbbeta3 (Homo sapiens, UniProt P05106+P08514).
T2 construct: purchased Kordia (Kordia Life Science, Leiden, Netherlands)
T2 sequence (P08514 32-887 limits assumed): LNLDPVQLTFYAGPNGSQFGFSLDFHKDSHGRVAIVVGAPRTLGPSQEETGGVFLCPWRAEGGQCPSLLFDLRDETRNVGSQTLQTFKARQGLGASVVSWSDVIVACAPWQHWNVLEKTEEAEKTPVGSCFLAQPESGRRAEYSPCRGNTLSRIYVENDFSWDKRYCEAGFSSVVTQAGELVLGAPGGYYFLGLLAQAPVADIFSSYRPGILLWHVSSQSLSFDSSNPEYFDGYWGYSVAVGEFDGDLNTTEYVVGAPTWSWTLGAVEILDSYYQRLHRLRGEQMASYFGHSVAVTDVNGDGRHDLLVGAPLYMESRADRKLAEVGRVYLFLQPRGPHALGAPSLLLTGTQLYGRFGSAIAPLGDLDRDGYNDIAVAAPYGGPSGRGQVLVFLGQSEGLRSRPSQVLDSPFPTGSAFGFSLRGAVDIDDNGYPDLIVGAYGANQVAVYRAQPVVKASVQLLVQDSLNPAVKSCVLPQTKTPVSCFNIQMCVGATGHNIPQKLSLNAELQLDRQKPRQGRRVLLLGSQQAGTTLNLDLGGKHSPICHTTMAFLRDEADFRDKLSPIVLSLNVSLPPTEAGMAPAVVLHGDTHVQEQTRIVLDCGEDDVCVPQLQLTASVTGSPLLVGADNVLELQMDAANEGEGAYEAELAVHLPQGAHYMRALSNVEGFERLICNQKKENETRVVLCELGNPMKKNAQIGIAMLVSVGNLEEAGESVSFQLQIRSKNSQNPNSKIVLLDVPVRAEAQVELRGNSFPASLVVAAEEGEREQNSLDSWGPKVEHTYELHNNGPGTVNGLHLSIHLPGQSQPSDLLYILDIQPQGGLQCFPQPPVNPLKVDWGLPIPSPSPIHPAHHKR
T2 sequence (P05106 27-788): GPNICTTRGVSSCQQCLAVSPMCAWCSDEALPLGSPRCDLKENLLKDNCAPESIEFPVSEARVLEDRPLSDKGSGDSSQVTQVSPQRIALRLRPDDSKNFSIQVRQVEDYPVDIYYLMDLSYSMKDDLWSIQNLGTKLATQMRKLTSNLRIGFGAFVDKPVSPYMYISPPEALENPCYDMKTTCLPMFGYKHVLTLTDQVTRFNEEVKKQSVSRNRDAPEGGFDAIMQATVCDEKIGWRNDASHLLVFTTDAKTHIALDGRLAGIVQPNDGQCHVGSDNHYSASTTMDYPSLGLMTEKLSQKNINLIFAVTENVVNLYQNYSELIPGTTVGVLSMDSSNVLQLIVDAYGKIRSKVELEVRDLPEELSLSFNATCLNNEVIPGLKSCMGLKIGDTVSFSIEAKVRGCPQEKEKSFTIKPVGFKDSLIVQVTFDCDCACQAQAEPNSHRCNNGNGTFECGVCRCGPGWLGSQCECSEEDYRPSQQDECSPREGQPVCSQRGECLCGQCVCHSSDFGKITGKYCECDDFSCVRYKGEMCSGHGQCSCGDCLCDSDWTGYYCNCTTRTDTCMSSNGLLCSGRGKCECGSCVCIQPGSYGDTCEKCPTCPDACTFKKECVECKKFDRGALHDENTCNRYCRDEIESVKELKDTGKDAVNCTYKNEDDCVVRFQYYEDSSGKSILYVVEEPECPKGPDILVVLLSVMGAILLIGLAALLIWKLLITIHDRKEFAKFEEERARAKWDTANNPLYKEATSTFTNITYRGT
The experiment is described as follows: alphaIIbbeta3 - Fibrinogen Binding Assay (competitive ELISA). Particulars: inhibition of integrin binding to fibrinogen, read-out: IC50 alphabIIbbeta3. The protocol: as §1, §2
1.2. alphaIIbbeta3—Fibrinogen Binding Assay
Fibrinogen was diluted with coating buffer (15 mM Na2CO3, 35 mM NaHCO3, pH 9.6) and coated with 100 μL/well to Nunc-Immuno maxisorp plates over night at 4° C. After discarding the coating solution plates were washed 3 times with buffer 1 (25 mM Tris, pH 7.6, 150 mM NaCl, 1 mM MnCl2, 1 mg/ml BSA) and blocked with 100 μL blocking buffer (3% BSA in PBS 0.1% Tween20) for 1 hour at room temperature. After washing the blocked plates (3 times) with buffer 1, integrin alphaIIbbeta3 (50 μL) and either inhibitor (serial dilution in buffer 3, 25 mM Tris, pH 7.6, 150 mM NaCl, 1 mM MnCl2, 1 mg/ml BSA 1 mM MgCl2, 1 mM CaCl2,) or buffer 3 (50 μL) were added to the wells and incubated for one hour at RT. Plates were then washed (3 times) with buffer 3 and incubated with 100 μL of anti-alphaIIbbeta3 antibody (anti CD41b, Pharmingen) in buffer 3 for 1 hour at RT. Plates were washed (3 times) with buffer 3 and incubated for 1 hour with 100 μL secondary antibody (anti-mouse-HRP conjugate, Sigma) in buffer 3. After additional washing steps (3 times) with buffer 3 50 μL of HRP substrate solution TMB (Seramun) were added to the wells. Color development was stopped after 3-5 minutes with 50 μL 1 M H2SO4. The developed color was measured at 450 nm and analyzed as described above.

SMILES strings stand for the structures. pIC50: −log10 of the molar value.

For the compound `Cc1ccnc(NCc2coc(-c3ccc(C[C@H](NC(=O)c4c(C)cc(F)cc4C)C(=O)O)cc3)c2)c1` [Compound 37, 2-(4-Fluoro-2,6-dimethyl-benzoylamino)-3-(4-{4-[(4-methyl-pyridin-2-ylamino)-methyl]-furan-2-yl}-phenyl)-propionic acid], the negative-log IC50 (pIC50) in experiment [1] was greater than 7.00; in experiment [2], less than 9.00.
With `Cc1ccnc(NCc2cc(-c3ccc(C[C@H](NC(=O)c4c(C)cc(C)cc4C)C(=O)O)cc3)on2)c1` [Compound 6, 3-(4-{3-[(4-Methyl-pyridin-2-ylamino)-methyl]-isoxazol-5-yl}-phenyl)-2-(2,4,6-trimethyl-benzoylamino)-propionic acid], the pIC50 is greater than 7.00 in experiment [1] and less than 9.00 in experiment [2].
Regarding `Cc1ccnc(NCc2coc(-c3ccc(C[C@H](NC(=O)c4c(C)cc(C)cc4C)C(=O)O)cc3)c2)c1` [Compound 12, 3-(4-{4-[(4-Methyl-pyridin-2-ylamino)-methyl]-furan-2-yl}-phenyl)-2-(2,4,6-trimethyl-benzoylamino)-propionic acid], the figures for the pIC50 in experiment [1] and in experiment [2] were greater than 7.00 and less than 9.00, respectively.
On the same counts, the results for `Cc1ccnc(NCc2cnc(-c3ccc(C[C@H](NC(=O)c4c(C)cc(C)cc4C)C(=O)O)cc3)s2)c1` [Compound 9, 3-(4-{5-[(4-Methyl-pyridin-2-ylamino)-methyl]-thiazol-2-yl}-phenyl)-2-(2,4,6-trimethyl-benzoylamino)-propionic acid] are greater than 7.00 and less than 9.00.
Regarding `CCc1cccc(C)c1C(=O)N[C@@H](Cc1ccc(-c2cc(CNc3cc(C)ccn3)co2)cc1)C(=O)O` [Compound 36, 2-(2-Ethyl-6-methyl-benzoylamino)-3-(4-{4-[(4-methyl-pyridin-2-ylamino)-methyl]-furan-2-yl}-phenyl)-propionic acid], the pIC50 in experiment [1] is greater than 7.00; in experiment [2], less than 9.00.
On the same counts, the results for `Cc1ccnc(NCc2csc(-c3ccc(C[C@H](NC(=O)c4c(C)cc(C)cc4C)C(=O)O)cc3)c2)c1` [Compound 19, 3-(4-{4-[(4-Methyl-pyridin-2-ylamino)-methyl]-thiophen-2-yl}-phenyl)-2-(2,4,6-trimethyl-benzoylamino)-propionic acid] are greater than 7.00 and less than 9.00.
On the same counts, the results for `Cc1ccnc(NCc2ccn(-c3ccc(C[C@H](NC(=O)C4(C)CCCCC4)C(=O)O)cc3)c2)c1` [Compound 22, 2-[(1-Methyl-cyclohexanecarbonyl)-amino]-3-(4-{3-[(4-methyl-pyridin-2-ylamino)-methyl]-pyrrol-1-yl}-phenyl)-propionic acid] are greater than 7.00 and less than 9.00.
On the same counts, the results for `Cc1cc(C)c(C(=O)N[C@@H](Cc2ccc(-n3cc(CNc4nc5ccccc5[nH]4)nn3)cc2)C(=O)O)c(C)c1` [Compound 29, 3-(4-{4-[(1H-Benzoimidazol-2-ylamino)-methyl]-[1,2,3]triazol-1-yl}-phenyl)-2-(2,4,6-trimethyl-benzoylamino)-propionic] are greater than 7.00 and less than 9.00.
Take `Cc1ccnc(NCc2cn(-c3ccc(C[C@H](NC(=O)c4c(C)cc(C)cc4C)C(=O)O)cc3)nn2)c1` [Compound 15, 3-(4-{4-[(4-Methyl-pyridin-2-ylamino)-methyl]-[1,2,3]triazol-1-yl}-phenyl)-2-(2,4,6-trimethyl-benzoylamino)-propionic acid]: the negative logarithm of the IC50 (pIC50) is greater than 7.00 in experiment [1] and less than 9.00 in experiment [2].
On the same counts, the results for `Cc1ccnc(NCc2coc(-c3ccc(C[C@H](NC(=O)c4c(C)cccc4C)C(=O)O)cc3)c2)c1` [Compound 35, 2-(2,6-Dimethyl-benzoylamino)-3-(4-{4-[(4-methyl-pyridin-2-ylamino)-methyl]-furan-2-yl}-phenyl)-propionic acid] are greater than 7.00 and less than 9.00.
